Here are results for eleven compounds from ChEMBL document CHEMBL1128697, “Synthesis of isoornithines and methylputrescines. An evaluation of their inhibitory effects on ornithine decarboxylase” (J Med Chem, 1995).

SMILES strings stand for the structures.

For the test, the target named is T1, Ornithine decarboxylase (Rattus norvegicus, UniProt P09057).
T1 sequence (P09057 whole entry): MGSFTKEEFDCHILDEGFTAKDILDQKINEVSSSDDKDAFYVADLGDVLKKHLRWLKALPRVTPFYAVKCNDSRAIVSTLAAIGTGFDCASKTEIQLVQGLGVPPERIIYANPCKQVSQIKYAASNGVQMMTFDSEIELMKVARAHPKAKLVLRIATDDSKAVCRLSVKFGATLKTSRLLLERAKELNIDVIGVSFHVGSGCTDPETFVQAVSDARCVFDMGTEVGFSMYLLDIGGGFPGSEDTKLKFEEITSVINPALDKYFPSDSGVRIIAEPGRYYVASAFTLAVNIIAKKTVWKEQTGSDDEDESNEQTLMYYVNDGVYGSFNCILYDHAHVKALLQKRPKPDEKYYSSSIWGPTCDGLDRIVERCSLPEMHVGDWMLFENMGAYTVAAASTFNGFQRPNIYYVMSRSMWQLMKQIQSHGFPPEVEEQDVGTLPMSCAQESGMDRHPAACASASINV
The test is described as follows: Inhibition of liver Ornithine decarboxylase in thioacetamide-treated rat.
Compound `CC(CN)C(C)(C)CN` (stereo unspecified) yielded a Ki greater than 10.5 mM. In the case of `CC(C)(CN)CCN` it was greater than 10 mM. The value for `CC(C)(CN)C(C)(C)CN` was greater than 11 mM; that for `CC(C)(CN)C(C)(CN)C(=O)O` (stereo unspecified) was greater than 11 mM; that for `CC(CN)C(C)(CN)C(=O)O` (stereo unspecified) was 1.65 mM.

For the compound `CC(C)(CN)C(CN)C(=O)O` (stereo unspecified), the Ki was greater than 11 mM. Compound `CC(CN)(CCN)C(=O)O` (stereo unspecified) came in with a Ki greater than 11 mM. As for `NCCC(CN)C(=O)O` (stereo unspecified), the Ki is 1.79 mM. In turn, `CC(CN)C(CN)C(=O)O` (stereo unspecified) yielded an inhibitory constant (Ki) of 0.72 mM. In the case of `CC(CN)C(C)CN` (stereo unspecified) it was 6.1 mM.

Regarding `NCCCCN` [PUTRESCINE], the Ki was determined as 3.5 mM.
